Source: ChEMBL document CHEMBL1201862, “PubChem BioAssay data set” (2004)
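Grown in 96-well plates, cells were treated for 48 hours with each compound at five concentrations. Insufficient inhibition: endpoint recorded as highest concentration tested. GI50 = concentration required for 50% inhibition of growth.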 Activity calls are given as the source filed them. No stated cut-off is given here; in the data, active = GI50 up to about 1.1 µM and inactive = higher.

Assays:
Assay in all cases: inhibition of tumour cell growth, NCI panel, 48 h
786-0 = test system: 786-0
A498 = test system: A498
A549 = test system: A549
ACHN = test system: ACHN
CAKI-1 = test system: CAKI-1
CCRF-CEM = test system: CCRF-CEM
COLO 205 = test system: COLO 205
DLD-1 = test system: DLD-1
DMS-114 = test system: DMS-114
DMS-273 = test system: DMS-273
EKVX = test system: EKVX
HCC 2998 = test system: HCC 2998
HCT-116 = test system: HCT-116
HCT-15 = test system: HCT-15
HL-60 = test system: HL-60
HOP-62 = test system: HOP-62
HOP-92 = test system: HOP-92
HT-29 = test system: HT-29
IGROV-1 = test system: IGROV-1
K562 = test system: K562
KM-20L2 = test system: KM-20L2
KM12 = test system: KM12
LOX IMVI = test system: LOX IMVI
LXFL 529 = test system: LXFL 529
M14 = test system: M14
M19-MEL = test system: M19-MEL
MOLT-4 = test system: MOLT-4
Malme-3M = test system: Malme-3M
NCI-H226 = test system: NCI-H226
NCI-H23 = test system: NCI-H23
NCI-H522 = test system: NCI-H522
OVCAR-3 = test system: OVCAR-3
OVCAR-4 = test system: OVCAR-4
OVCAR-5 = test system: OVCAR-5
OVCAR-8 = test system: OVCAR-8
RPMI-8226 = test system: RPMI-8226
RXF 631 = test system: RXF 631
SF-268 = test system: SF-268
SF-295 = test system: SF-295
SF-539 = test system: SF-539
SK-MEL-28 = test system: SK-MEL-28
SK-MEL-2 = test system: SK-MEL-2
SK-MEL-5 = test system: SK-MEL-5
SK-OV-3 = test system: SK-OV-3
SN12C = test system: SN12C
SNB-19 = test system: SNB-19
SNB-75 = test system: SNB-75
SW-620 = test system: SW-620
TK-10 = test system: TK-10
U-251 = test system: U-251
UACC-257 = test system: UACC-257
UACC-62 = test system: UACC-62
UO-31 = test system: UO-31
XF498 = test system: XF498
NCI-H460 = test system: NCI-H460
SNB-78 = test system: SNB-78

Measured: GI50

Cc1cccc(/N=C/c2ccc(N(CCC#N)S(=O)(=O)c3ccccc3)cc2C)c1
inactive: 786-0 > 100 µM | A498 > 100 µM | A549 > 100 µM | ACHN 88.3 µM | CAKI-1 > 100 µM | CCRF-CEM 19.1 µM | COLO 205 > 100 µM | DLD-1 > 100 µM | DMS-114 63.7 µM | DMS-273 > 100 µM | EKVX > 100 µM | HCC 2998 > 100 µM | HCT-116 > 100 µM | HL-60 21.9 µM | HOP-62 > 100 µM | HOP-92 33.3 µM | HT-29 > 100 µM | IGROV-1 > 100 µM | K562 34.5 µM | KM-20L2 > 100 µM | KM12 > 100 µM | LOX IMVI 17.6 µM | LXFL 529 29.6 µM | M14 > 100 µM | M19-MEL > 100 µM | MOLT-4 29.2 µM | Malme-3M > 100 µM | NCI-H226 20.7 µM | NCI-H23 > 100 µM | NCI-H522 > 100 µM | OVCAR-3 > 100 µM | OVCAR-4 > 100 µM | OVCAR-5 > 100 µM | OVCAR-8 42.9 µM | RPMI-8226 63.4 µM | RXF 631 > 100 µM | SF-268 58.9 µM | SF-295 > 100 µM | SF-539 > 100 µM | SK-MEL-28 > 100 µM | SK-MEL-2 > 100 µM | SK-MEL-5 > 100 µM | SK-OV-3 > 100 µM | SN12C > 100 µM | SNB-19 > 100 µM | SNB-75 67 µM | SW-620 > 100 µM | TK-10 > 100 µM | U-251 > 100 µM | UACC-257 > 100 µM | UACC-62 26.1 µM | UO-31 13.3 µM | XF498 > 100 µM
98.6 µM: HCT-15

O=C(O)C12C3C4C1C1C2C3C41I (stereo not given)
> 100 µM: HCT-15
inactive: 786-0 > 100 µM | A498 > 100 µM | A549 > 100 µM | ACHN > 100 µM | CAKI-1 > 100 µM | CCRF-CEM > 100 µM | COLO 205 > 100 µM | DLD-1 > 100 µM | DMS-114 > 100 µM | DMS-273 > 100 µM | EKVX > 100 µM | HCC 2998 > 100 µM | HCT-116 > 100 µM | HL-60 > 100 µM | HOP-62 > 100 µM | HOP-92 > 100 µM | HT-29 > 100 µM | IGROV-1 > 100 µM | K562 > 100 µM | KM-20L2 > 100 µM | KM12 > 100 µM | LOX IMVI > 100 µM | LXFL 529 > 100 µM | M14 > 100 µM | M19-MEL > 100 µM | MOLT-4 > 100 µM | Malme-3M > 100 µM | NCI-H226 > 100 µM | NCI-H23 > 100 µM | NCI-H460 > 100 µM | NCI-H522 > 100 µM | OVCAR-3 > 100 µM | OVCAR-4 > 100 µM | OVCAR-5 > 100 µM | OVCAR-8 > 100 µM | RPMI-8226 > 100 µM | RXF 631 > 100 µM | SF-268 > 100 µM | SF-295 > 100 µM | SF-539 > 100 µM | SK-MEL-28 > 100 µM | SK-MEL-2 > 100 µM | SK-MEL-5 > 100 µM | SK-OV-3 > 100 µM | SN12C > 100 µM | SNB-19 > 100 µM | SNB-75 70.6 µM | SNB-78 > 100 µM | SW-620 > 100 µM | TK-10 > 100 µM | U-251 > 100 µM | UACC-257 > 100 µM | UACC-62 > 100 µM | UO-31 > 100 µM | XF498 > 100 µM
